The assay addresses T1, Vitamin D3 receptor (Homo sapiens, UniProt P11473).
T1 sequence (P11473 whole entry): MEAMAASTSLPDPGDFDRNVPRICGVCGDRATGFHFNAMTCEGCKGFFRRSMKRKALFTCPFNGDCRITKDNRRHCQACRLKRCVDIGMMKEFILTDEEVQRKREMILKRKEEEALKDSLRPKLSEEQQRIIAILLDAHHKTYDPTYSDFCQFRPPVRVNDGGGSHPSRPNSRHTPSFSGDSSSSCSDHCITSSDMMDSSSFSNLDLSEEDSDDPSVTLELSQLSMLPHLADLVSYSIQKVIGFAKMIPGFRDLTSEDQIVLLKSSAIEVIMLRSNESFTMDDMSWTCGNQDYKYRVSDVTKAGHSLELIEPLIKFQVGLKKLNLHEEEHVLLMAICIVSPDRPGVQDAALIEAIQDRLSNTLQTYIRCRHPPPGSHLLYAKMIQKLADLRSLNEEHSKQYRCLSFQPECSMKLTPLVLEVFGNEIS
Kind of assay: Displacement of [3H]1alpha,25-dihydroxyvitamin D3 from human recombinant GST-tagged vitamin D3 receptor LBD expressed in Escherichia coli BL21 after 16 hrs.

By IC50 is commonly meant the midpoint of a concentration-inhibition curve. On to `C=C1[C@H](O)CC(=C/C=C2\CCC[C@]3(C)[C@@H]([C@H](C)[C@@H](CC)CC(O)(CC)CC)CC[C@@H]23)C[C@H]1O`, for which the IC50 turned out to be 0.38 nM.

These data come from ChEMBL document CHEMBL2057157, “Butyl pocket formation in the vitamin D receptor strongly affects the agonistic or antagonistic behavior of ligands” (J Med Chem, 2012).
